Reference: patent publication US20260199323A1, “LIGAND COMPOUNDS FOR E3 UBIQUITIN LIGASE, PROTEIN DEGRADERS DEVELOPED ON BASIS OF LIGAND COMPOUNDS, AND USES THEREOF” (GLUETACS THERAPEUTICS (SHANGHAI) CO., LTD., priority 2021, published 2026)

How the values were obtained:
Assay type in all cases: cell-based, Human
[1] = test system: MDA-MB-231; assay: CCK-8 tumor cell proliferation, MDA-MB-231; settings: Homo sapiens; Table 18, FAK inhibitor based; MDA-MB-231; read-out: IC50 inhibiting proliferation of tumor cells, MDA-MB-231
Protocol: (§1) The tumor cells used herein were cultured in a cell culture medium listed in table 4 at 37° C. in an incubator with 5% CO2. Prior to experimentation, all cells used were correctly identified by STR profiling, and tested negative for mycoplasma through routine screenings.
(§2) IC50 values of the compounds of the present disclosure (including the compounds in Tables 1 and 3, and compounds of examples) were measured using the Meilun Cell Counting Kit-8 kit from Dalian Meilun Biotech Co., Ltd. Assay details are as follows: tumor cells were seeded in a 96-well plate at a density listed in Table 5. After 24 h, 100 μL of the inoculated cells were treated with 0.5 μL of the compounds of the present disclosure (including the compounds in Tables 1 and 3, and compounds of examples) at 10 different successively decreasing concentrations (starting at the highest concentration of 10 μM; 5-fold serial dilutions). After the cells were treated with the compounds of the present disclosure for a period of time, the cell viability detection reagent was added to the culture medium for cell viability assessment according to the instructions provided with the CCK-8 kit. […] The growth inhibition of the compounds of the present disclosure on cells was plotted by Prism Graphpad software, and the IC50 values of the compounds of the present disclosure were calculated therefrom.

[2] = test system: CCRF-CEM; assay: CCK-8 tumor cell proliferation, CCRF-CEM; set-up: IC50 for inhibiting the proliferation of tumor cells, CCRF-CEM: scale not given here; settings: for IC50 for inhibiting the proliferation of tumor cells, CCRF-CEM: 96 h
Protocol: as §1, §2

[3] = test system: CAL-62; assay: CCK-8 tumor cell proliferation, CAL-62; set-up: IC50 for inhibiting the proliferation of tumor cells, CAL-62: scale not given here; settings: 72 h
Protocol: as §1, §2

[4] = Table 12, designed based on CDK9 inhibitors

SMILES: Cc1cnc(Nc2ccc(N3CCC(N(C)Cc4ccc5c(c4)CN(C4CCC(=O)NC4=O)C5=O)CC3)cc2)nc1Nc1cccc(S(=O)(=O)NC(C)(C)C)c1 (centres unmarked) [GT-03690, N-(tert-butyl)-3-((2-((4-(4-(((2-(2,6-dioxopiperidin-3-yl)-1-oxoisoindolin-5-yl)methyl)(methyl)amino)piperidin-1-yl)phenyl)amino)-5-methylpyrimidin-4-yl)amino)benzenesulfonamide]
- IC50 [1]: < 50 nM

SMILES: Cc1sc2c(c1C)C(c1ccc(Cl)cc1)=N[C@@H](CC(=O)NCc1ccc3c(c1)CN(C1CCC(=O)NC1=O)C3=O)c1nnc(C)n1-2 (stereo partly drawn) [GT-03378, 2-((S)-4-(4-chlorophenyl)-2,3,9-trimethyl-6H-thieno[3,2-f][1,2,4]triazolo[4,3-a][1,4]diazepin-6-yl)-N-((2-(2,6-dioxopiperidin-3-yl)-1-oxoisoindolin-5-yl)methyl)acetamide]
- IC50 for inhibiting the proliferation of tumor cells, CCRF-CEM ([2]; Table 16, designed based on BET inhibitors): A+

SMILES: CN(c1cccc(CNc2nc(Nc3ccc(N4CCC(N5CCN(Cc6ccc7c(c6)CN(C6CCC(=O)NC6=O)C7=O)CC5)CC4)cc3)ncc2C(F)(F)F)c1)S(C)(=O)=O (centres unmarked) [GT-03678, N-(3-(((2-((4-(4-(4-((2-(2,6-dioxopiperidin-3-yl)-1-oxoisoindolin-5-yl)methyl)piperazin-1-yl)piperidin-1-yl)phenyl)amino)-5-(trifluoromethyl)pyrimidin-4-yl)amino)methyl)phenyl)-N-methylmethanesulfonamide]
- IC50 [1]: < 50 nM

SMILES: Cn1ncc(-c2nc(NC3CCN(Cc4ccc5c(c4F)CN(C4CCC(=O)NC4=O)C5=O)CC3)ncc2Cl)c1CC1CC1 (centres unmarked) [GT-04045, 3-(5-((4-((5-chloro-4-(5-(cyclopropylmethyl)-1-methyl-1H-pyrazol-4-yl)pyrimidin-2-yl)amino)piperidin-1-yl)methyl)-4-fluoro-1-oxoisoindolin-2-yl)piperidine-2,6-dione]
- IC50 for inhibiting the proliferation of tumor cells, CCRF-CEM [2, 4]: A+
- IC50 for inhibiting the proliferation of tumor cells, CAL-62 [3, 4]: A+

SMILES: O=C1CCC(N2C(=O)c3ccc(CBr)cc3C2=O)C(=O)N1 (centres unmarked) [GT-03788]
- IC50 for inhibiting the proliferation of tumor cells, CCRF-CEM ([2]; Table 8, designed based on ER inhibitors): A+

SMILES: Cn1ncc(-c2nc(NC3CCN(Cc4ccc5c(c4)CN(C4CCC(=O)NC4=O)C5=O)CC3)ncc2Cl)c1CC1CC1 (centres unmarked) [GT-04044, 3-(5-((4-((5-chloro-4-(5-(cyclopropylmethyl)-1-methyl-1H-pyrazol-4-yl)pyrimidin-2-yl)amino)piperidin-1-yl)methyl)-1-oxoisoindolin-2-yl)piperidine-2,6-dione]
- IC50 for inhibiting the proliferation of tumor cells, CCRF-CEM [2, 4]: A+

SMILES: COc1cc(Nc2c(C#N)cnc3cc(OCCCN4CCN(Cc5ccc6c(c5)CN(C5CCC(=O)NC5=O)C6=O)CC4)c(OC)cc23)c(Cl)cc1Cl (centres unmarked) [GT-02968, 4-((2,4-dichloro-5-methoxyphenyl)amino)-7-(3-(4-((2-(2,6-dioxopiperidin-3-yl)-1-oxoisoindolin-5-yl)methyl)piperazin-1-yl)propoxy)-6-methoxyquinoline-3-carbonitrile]
- IC50 for inhibiting the proliferation of tumor cells, CAL-62 ([3]; Table 13, designed based on BCR-ABL inhibitors): A+

SMILES: Cn1ncc(-c2nc(NC3CCN(Cc4cc5c(cc4F)C(=O)N(C4CCC(=O)NC4=O)C5)CC3)ncc2Cl)c1CC1CC1 (centres unmarked) [GT-04046, 3-(5-((4-((5-chloro-4-(5-(cyclopropylmethyl)-1-methyl-1H-pyrazol-4-yl)pyrimidin-2-yl)amino)piperidin-1-yl)methyl)-6-fluoro-1-oxoisoindolin-2-yl)piperidine-2,6-dione]
- IC50 for inhibiting the proliferation of tumor cells, CCRF-CEM [2, 4]: A+
- IC50 for inhibiting the proliferation of tumor cells, CAL-62 [3, 4]: A+

SMILES: CNC(=O)c1ccccc1Nc1cc(Nc2cc(C)c(C3CCN(Cc4ccc5c(c4)C(=O)N(C4CCC(=O)NC4=O)C5=O)CC3)cc2OC(C)C)ncc1C(F)(F)F (centres unmarked) [GT-04083, 2-((2-((4-(1-((2-(2,6-dioxopiperidin-3-yl)-1,3-dioxoisoindolin-5-yl)methyl)piperidin-4-yl)-2-isopropoxy-5-methylphenyl)amino)-5-(trifluoromethyl)pyridin-4-yl)amino)-N-methylbenzamide]
- IC50 ([2]; Homo sapiens, Table 18, FAK inhibitor based, CCRF-CEM, read-out: IC50 inhibiting proliferation of tumor cells, CCRF-CEM): 100 to 500 nM
